Laboratory results published in patent US7303876B2 (Applera Corporation, priority 2000, dated 2007).

Key:
Liver tissue = Liver tissue disaggregation by 1% surfactant with or without Proteinase K at 60° C.; details: 60° C., 1% surfactant
Protocol: To evaluate the ability of various cationic surfactants to increase the digestion of tissue by Proteinase K, liver slices were digested using reaction compositions including one of the sixteen surfactants (shown in Table 4), both with and without Proteinase K. The reducing agent dithiothreitol (DTT) was included to evaluate the effect of reducing conditions on tissue digestion. […] One of the sixteen surfactants was added to one pair of tubes to yield a final concentration of 1% surfactant. The seventeenth pair of tubes served as non-surfactant controls. One milligram (mg) of Proteinase K was added to one tube of each of the seventeen pairs.
PK=presence or absence of Proteinase K in the reaction composition; Y=Proteinase K was present; N=Proteinase K was not present in the reaction composition.

[1] = Solubility of 1% cationic surfactants in 5M chaotropic salt solutions containing 2% Tween 20; details: 5M chaotropic salts, 2% Tween 20
Description: The solubilities of several cationic surfactants were examined in different chaotropic salt solutions. The cationic surfactants examined were cetyltrimethylammonium bromide (CTAB), cetyltrimethylammonium chloride (CTACl), tetradecyltrimethylammonium bromide (TTAB), tetradecyltrimethylammonium chloride (TTACl), dodecyltrimethylammonium bromide (DTAB), dodecyltrimethylammonium (DTACl), dodecylethyidimethylammonium bromide (DEDTAB), decyltrimethylammonium bromide (D10TAB), and dodecyltriphenylphosphonium bromide (DTPB). Each of the cationic surfactants tested was presented in a 1% concentration. Each of the cationic surfactants was examined in a 5M solution of one of the chaotropic salts containing 2% Tween 20. Each cationic surfactant and salt combination was tested at pH 6 (50 mM MES), pH 8 (50 mM Tris-HCl), and pH 10 (50 mM AMP).

Calf thymus DNA = assay: Effect of DTAB on DNA recovery when added before, during, and after DNA binding to GF/B; details: pretreatment with 5M salt with 1% DTAB (D+) versus without (D−)
Protocol: The inhibitory effect of the cationic surfactant, DTAB, was further examined. DTAB was introduced at various points of the purification reaction, before DNA binding, during binding, or after DNA binding has occurred on the solid phase. DNA binding and purification procedures were carried out using GF/B glass fiber filters (in a 96-well format) on the ABI PRISM 6100.
In set A, the GF/B membrane was pretreated with 100 μl of liquid lacking (A−) or containing (A+) 1% DTAB. Calf thymus DNA (8 μg) was then bound in 800 μL of 50 mM MES, pH 6.0, 20 mM EDTA, and 5 M salt (either NaBr or GUSCN).
In set B, the membranes were not prewashed. Calf thymus DNA (8 μg) was bound to GF/B glass fiber filters in 800 μl of 50 mM MES, pH, 6.0, 20 mM EDTA, and 5 M salt (either NaBr or GuSCN). Following binding, the membranes were washed in 50 mM MES, pH 6.0, 20 mM EDTA and 5 M salt (either NaBr or GuSCN) either lacking (B−) or containing (B+) 1% DTAB.
In set C, the membranes were not prewashed. Calf thymus DNA (8 μg) was bound to GF/B glass fiber filters in 800 μl of 50 mM MES, pH 6.0, 20 mM EDTA, and 5 M salt (either NaBr or GUSCN) either lacking (C−) or containing (C+) 1% DTAB.
In set D, the GF/B membrane was pretreated with 100 μl of 5 M salt (either NaBr or GuSCN) lacking (A−) or containing (A+) 1% DTAB. […]

[2] = Solubility of surfactants (0.5% Sarkosyl, LDS, SDS, CTAB; 5.0% others) in salt solutions
Protocol: In certain instances, the solubility of detergents in high salt may relate to on the composition of the salt and the detergent itself. A mixing experiment was performed to examine the solubility of a variety of anionic, cationic, and nonionic surfactants in different salt compositions. […] The salt solutions contained Lil, Nal, KI, Rbl, Csl , GuSCN, GuHCl, or NaClO4, at pH 6.0 or 10.0. […] The solubility of the surfactants was scored as either soluble or insoluble. The solubility of the surfactant in the salt solution was determined initially by visual observations for cloudiness or precipitate formation. The resulting solutions were also centrifuged to verify the absence of a precipitate by the absence of a precipitate pellet.

Calf thymus genomic DNA = assay: Reversal by Tween 20 of DTAB inhibition of DNA recovery from GF/B
Protocol: Having identified the cationic surfactant as a major component inhibiting DNA recovery, the ability of a nonionic surfactant to reverse the inhibitory effect was examined. Calf thymus genomic DNA (8 μg) was bound to the glass fiber GF/B membrane in the presence of 0%, 1% and 4% dodecyltrimethylammonium bromide (DTAB) with increasing concentrations of Tween 20.
The binding buffer also contained 5M GuSCN, 20 mM EDTA, and 50 mM MES (pH 6.0). DNA was first eluted with 200 μl of TE followed by a separate elution with 100 μl of 0.1N NaOH. All binding and elution steps were done at ambient temperature.

[3] = test system: cationic surfactant: nucleic acid precipitate; assay: Solubilizing the cationic surfactant: nucleic acid precipitate (calf thymus DNA + 1% CTAB); details: Calf thymus DNA 700 μg/ml, 100 mM Tris, pH 8, additive at final concentration
Protocol: Calf thymus DNA (Sigma; 700 μg/ml lightly sheared using an 18 gauge hypodermic needle) was mixed with 1% CTAB in 100 mM Tris, pH 8 to form a reaction composition.

Row | Compound | Tissue Disaggregation (Liver tissue; Fifteen Minutes Incubation, Proteinase K not present (N)) | Tissue Disaggregation (Liver tissue; Fifteen Minutes Incubation, Proteinase K present (Y)) | Tissue Disaggregation (Liver tissue; Fifty-Two Minutes Incubation, Proteinase K not present (N)) | Tissue Disaggregation (Liver tissue; Fifty-Two Minutes Incubation, Proteinase K present (Y)) | relative solubility in chaotropic salt solutions (in words) [1] | subsequent binding of nucleic acid to GF/B (Calf thymus DNA) | Solubility of surfactant ([2]; 4 M GuHCl, Urea, pH 6.0) | Solubility of surfactant ([2]; 4 M GuHCl, Urea, pH 10.0) | Solubility of surfactant ([2]; 4 M KI, Urea, pH 6.0) | Solubility of surfactant ([2]; 4 M KI, Urea, pH 10.0) | Solubility of surfactant ([2]; 6 M GuHCl, pH 6.0) | Solubility of surfactant ([2]; 6 M GuHCl, pH 10.0) | Solubility of surfactant ([2]; 6 M NaI, pH 10.0) | concentration at which the amount of DNA recovered increased significantly (Calf thymus genomic DNA; 0% DTAB, FIG. 21) | concentration that substantially blocked the inhibitory effect of the cationic surfactant (Calf thymus genomic DNA; 1% DTAB, FIG. 22) | concentration that substantially blocked the inhibitory effect of the cationic surfactant (Calf thymus genomic DNA; 4% DTAB, FIG. 23) | Result (solubilization of the CTAB: nucleic acid precipitate) [3]
1 | CCCCCCCCCCCC[N+](C)(C)C.[Br-] [DTAB, dodecyltrimethylammonium bromide] | 0 | 2 | 0 | 3 | more soluble than larger surfactants | did not appear to influence subsequent binding of nucleic acid | – | – | – | – | – | – | – | – | – | – | –
2 | polyoxyethylenesorbitan monolaurate [Tween 20] | – | – | – | – | – | – | S | S | S | S | S | S | S | at least 1% | at least 2% | at least 4% | neither NaCl nor Tween 20, used alone, solubilized the precipitate
